Reference: BindingDB's records for doi:10.1021/jm0704550 (Cnrs, 2007)

Biological target: Growth hormone secretagogue receptor type 1 (Homo sapiens, UniProt Q92847)
Test: Receptor Binding Studies
Settings: pH 7.3; 25 °C

Growth hormone secretagogue receptor type 1, sequence (Q92847 whole entry): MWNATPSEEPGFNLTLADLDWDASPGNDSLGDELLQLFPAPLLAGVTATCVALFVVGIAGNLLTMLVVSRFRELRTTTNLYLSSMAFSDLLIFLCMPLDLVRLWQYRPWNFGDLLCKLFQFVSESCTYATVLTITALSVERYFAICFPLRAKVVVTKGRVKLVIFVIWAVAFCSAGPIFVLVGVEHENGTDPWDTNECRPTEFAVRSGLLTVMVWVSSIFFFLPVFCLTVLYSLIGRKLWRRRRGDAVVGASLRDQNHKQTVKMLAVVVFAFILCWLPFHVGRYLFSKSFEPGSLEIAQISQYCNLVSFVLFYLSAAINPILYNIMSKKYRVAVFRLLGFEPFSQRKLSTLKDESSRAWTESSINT

Row | Compound | Kb [nM] | IC50 [nM]
1 | COc1ccc(Cn2c(CCc3c[nH]c4ccccc34)nnc2[C@@H](Cc2c[nH]c3ccccc23)NC(=O)[C@H]2CCCN2)cc1 [(2R)-N-[(1R)-2-(1H-indol-3-yl)-1-{5-[2-(1H-indol-3-yl)ethyl]-4-[(4-methoxyphenyl)methyl]-4H-1,2,4-triazol-3-yl}ethyl]pyrrolidine-2-carboxamide] | 7 | –
2 | CCc1ccc(Cn2c(CCc3ccccc3)nnc2[C@@H](Cc2c[nH]c3ccccc23)NC(=O)[C@@H]2CCCN2)cc1 [(2S)-N-[(1R)-1-{4-[(4-ethylphenyl)methyl]-5-(2-phenylethyl)-4H-1,2,4-triazol-3-yl}-2-(1H-indol-3-yl)ethyl]pyrrolidine-2-carboxamide] | – | 490
